According to US20230293469A1, “NOVEL PHARMACEUTICAL COMPOSITIONS” (NEUROPRO THERAPEUTICS, INC., priority 2020, published 2023):
“And” between values parts separate entries of the source, which are not always exact repeats. Equal entries are not always repeated. Where two headings read alike, the source gives them in different places.

Assays:
[1] = Oral dose PK of NPT2042 in dog (AUC for absolute bioavailability); type: in vivo
Method: (§1) Assays were performed to determine absolute bioavailability of NPT2042 in two species: dog and rat. The calculation of absolute bioavailability depends on four inputs: the areas under the curves (AUC) for oral and IV, and the oral and IV doses.
Testing was conducted to determine AUCs for an oral dose in dog.
Two dogs were each dosed 30 mg/kg NPT2042 orally, on two different days.

[2] = system: Dog Microsomes; test: Metabolite screening of NPT-2042 in dog microsomes; type: in vitro ADME; details: NPT-2042 10 uM, microsomes 1 mg/mL
Method: (§2) Incubation of Test Compound in Microsomes • 1. Compound final concentration: 10 uM. • 2. Microsomes concentration 1 mg/mL. • 3. Incubate for 1 hour, with an NADPH regenerating system. • 4. 0.5 mL of incubation mixture at 0 min and 1 hour, mixed with 0.5 mL of acetonitrile. • 5. Vortex, and centrifuge at 13200 rpm for 10 min. • 6. Supernatant was transferred to a clean vial for LCMS analysis NADPH regenerating system (cofactor; consisting of NADP [0.340 mg/mL], G6P [1.56 mg/mL], and G6PDH [0.4 U/mL] solutions) LC-MS/MS Method: • HPLC Column: Agilent, Polaris 3 […], 150×2.0 mm (S/N: 533819), made in Netherlands. • Guard Column: Agilent, MonoChrom 3 C18 MetaGuard, 10×2.0 mm (S/N: 556145) • Column temperature: 40° C. • Mobile Phase A: 5 mM ammonium format in water (Optima) • Mobile Phase B: acetonitrile (Optima) • Flow rate: 0.2 mL/min • Gradient (Table on right) • MS: Thermo Q Exactive Plus.

[3] = IV bolus PK of NPT-2042 in dog; type: in vivo
Method: as §1
Testing was conducted to determine AUC for an IV dose in dog.
The same two dogs were each dosed 2042 IV at 10 mg/kg.
Table 8 provides Noncompartmental Parameters for NPT-2042 for 10 mg/kg Bolus Dosing of NPT-2042 in Dogs (n=2).

[4] = system: Human Microsomes; test: Metabolite screening of NPT-2042 in human microsomes; type: in vitro ADME; details: NPT-2042 10 uM, microsomes 1 mg/mL
Method: as §2

[5] = system: Rat Microsomes; test: Metabolite screening of NPT-2042 in rat microsomes; type: in vitro ADME; details: NPT-2042 10 uM, microsomes 1 mg/mL
Method: as §2

[6] = IV bolus PK of NPT-2042 in rat; type: in vivo; details: IV bolus 10 mg/kg
[7] = system: Microsomes; test: Proposed metabolite structures and biotransformation pathways (rat, dog, human microsomes); type: in vitro ADME; details: rat, dog, human microsomes, 10 uM, 1 hour
Method: Incubation of Test Compound in Microsomes • 1. Compound final concentration: 10 uM. • 2. Microsomes concentration 1 mg/mL. • 3. Incubate for 1 hour, with an NADPH regenerating system. • 4. 0.5 mL of incubation mixture at 0 min and 1 hour, mixed with 0.5 mL of acetonitrile. • 5. Vortex, and centrifuge at 13200 rpm for 10 min. • 6. Supernatant was transferred to a clean vial for LCMS analysis NADPH regenerating system (cofactor; consisting of NADP [0.340 mg/mL], G6P [1.56 mg/mL], and G6PDH [0.4 U/mL] solutions)
LC-MS/MS Method: • HPLC Column: Agilent, Polaris 3 C18-A, 150×2.0 mm (S/N: 533819), made in Netherlands. • Guard Column: Agilent, MonoChrom 3 C18 MetaGuard, 10×2.0 mm (S/N: 556145) • Column temperature: 40° C. • Mobile Phase A: 5 mM ammonium format in water (Optima) • Mobile Phase B: acetonitrile (Optima) • Flow rate: 0.2 mL/min • Gradient (Table on right) • MS: Thermo Q Exactive Plus.
Summary of Proposed Metabolite Structures and Biotransformation Pathway

[8] = NPT2042, dog, oral 30 mg/kg, animals D0001, D0601, Mean, 30 mg/kg
[9] = NPT2042, dog, oral 30 mg/kg, animals D0001, D0601, Mean, 30 mg/kg, mean
[10] = dog, in vivo, po, 30 mg/kg, NPT2042, dog, oral 30 mg/kg, animals D0001, D0601, Mean
[11] = 1 hour, NADPH regenerating system
[12] = NPT-2042, dog, IV bolus 10 mg/kg, animals 1201A, 1501A, Mean, 10 mg/kg
[13] = rat, individual rats and Mean (N=3), 10 mg/kg
[14] = rat, individual rats and Mean (N=3), 10 mg/kg, mean

CCCCNc1cc(C(=O)N(Cc2ccccc2)Cc2ccccc2)cc(S(N)(=O)=O)c1Oc1ccccc1 [NPT-2042, N,N-Dibenzyl 3-Aminosulfonyl-5-butylamino-4-phenoxybenzamide]
AUCinf [1, 8]: 1520 ng·h/mL | AUClast [1, 8]: 1450 ng·h/mL | CL/F [1, 8]: 328 mL/min/kg | Cmax [1, 8]: 153 ng/mL | t½ [1, 8]: 4.72 h | AUCinf [1, 9]: 1440 ng·h/mL | AUClast [1, 9]: 1390 ng·h/mL | CL/F [1, 9]: 347 mL/min/kg | Cmax [1, 9]: 152 ng/mL | t½ [1, 9]: 4.16 h | AUC(0-inf) [1, 10]: 1360 ng·h/mL | AUC(0-t) [1, 10]: 1340 ng·h/mL | CL/F ([1]; dog, in vivo, po, 30 mg/kg, NPT2042, dog, oral 30 mg/kg, animals D0001, D0601, Mean, read-out: CL/F (converted)): 367 mL/min/kg | Cmax ([1]; dog, in vivo, po, 30 mg/kg, NPT2042, dog, oral 30 mg/kg, animals D0001, D0601, Mean, read-out: Cmax): 151 ng/mL | Vd/F ([1]; dog, in vivo, po, 30 mg/kg, NPT2042, dog, oral 30 mg/kg, animals D0001, D0601, Mean, read-out: Vz/F): 115 L/kg | half-life ([1]; dog, in vivo, po, 30 mg/kg, NPT2042, dog, oral 30 mg/kg, animals D0001, D0601, Mean, read-out: t½ (converted)): 3.61 h | Absolute bioavailability (AUCpo/AUCiv)*(Doseiv/Dosepo) ([1]; dog, oral 30 mg/kg vs IV 10 mg/kg, as fraction): 0.0509 | Tmax ([1]; in vivo, NPT2042, dog, oral 30 mg/kg, animals D0001, D0601, Mean): 6 h | bioavailability ([1]; in vivo, dog, oral 30 mg/kg vs IV 10 mg/kg): 5.1% | Dog Mic (MS Intensity) [2, 11]: 1.85E+08 | Dog Mic (MS Intensity) ([2]; T = 0): 3.79E+08 | C0 (back-extrapolated concentration) [3, 12]: 5680 ng/mL and 6440 ng/mL | CL (total body clearance) [3, 12]: 19.5 mL/min/kg and 16.2 mL/min/kg | Tmax [3, 12]: 4.98 min | Vz (volume of distribution) [3, 12]: 6.44 L/kg and 6.54 L/kg | t½ (terminal-phase half-life) [3, 12]: 3.82 h and 4.67 h | Plasma NPT-2042 concentrations (in words) ([3]; dog, IV bolus 10 mg/kg): high and still quantifiable at 24 hours after dosing | Diuresis ([3]; dog, IV bolus 10 mg/kg NPT-2042): lack of diuresis | Decay profile after bolus dosing ([3]; dog, IV bolus 10 mg/kg, log-linear plots): multi-exponential decay | AUC(0-inf) ([3]; dog, plasma, iv, 10 mg/kg, NPT-2042, dog, IV bolus 10 mg/kg, animals 1201A, 1501A, Mean): 8560 ng·h/mL | C0 ([3]; dog, plasma, iv, 10 mg/kg, NPT-2042, dog, IV bolus 10 mg/kg, animals 1201A, 1501A, Mean, read-out: C0 (back-extrapolated concentration)): 6060 ng/mL | clearance ([3]; dog, plasma, iv, 10 mg/kg, NPT-2042, dog, IV bolus 10 mg/kg, animals 1201A, 1501A, Mean, read-out: CL (total body clearance) (converted)): 17.8 mL/min/kg | Cmax ([3]; dog, plasma, iv, 10 mg/kg, NPT-2042, dog, IV bolus 10 mg/kg, animals 1201A, 1501A, Mean, read-out: Cmax): 5210 ng/mL | Tmax ([3]; dog, plasma, iv, 10 mg/kg, NPT-2042, dog, IV bolus 10 mg/kg, animals 1201A, 1501A, Mean, read-out: Tmax): 4.8 min | Vd ([3]; dog, plasma, iv, 10 mg/kg, NPT-2042, dog, IV bolus 10 mg/kg, animals 1201A, 1501A, Mean, read-out: Vz (volume of distribution)): 6.49 L/kg | half-life ([3]; dog, plasma, iv, 10 mg/kg, NPT-2042, dog, IV bolus 10 mg/kg, animals 1201A, 1501A, Mean, read-out: t½ (terminal-phase half-life) (converted)): 4.25 h | concentration at 0.08 h ([3]; dog, plasma, iv, 10 mg/kg, dog, IV bolus 10 mg/kg, animals 1201A, 1501A, Mean, read-out: Plasma NPT-2042 concentration, Time 0.08 h): 5560 ng/mL | concentration at 1 h ([3]; dog, plasma, iv, 10 mg/kg, dog, IV bolus 10 mg/kg, animals 1201A, 1501A, Mean, read-out: Plasma NPT-2042 concentration, Time 1.00 h): 2240 ng/mL | concentration at 2 h ([3]; dog, plasma, iv, 10 mg/kg, dog, IV bolus 10 mg/kg, animals 1201A, 1501A, Mean, read-out: Plasma NPT-2042 concentration, Time 2.00 h): 1230 ng/mL | concentration at 4 h ([3]; dog, plasma, iv, 10 mg/kg, dog, IV bolus 10 mg/kg, animals 1201A, 1501A, Mean, read-out: Plasma NPT-2042 concentration, Time 4.00 h): 688 ng/mL | concentration at 6 h ([3]; dog, plasma, iv, 10 mg/kg, dog, IV bolus 10 mg/kg, animals 1201A, 1501A, Mean, read-out: Plasma NPT-2042 concentration, Time 6.00 h): 326 ng/mL | concentration at 8 h ([3]; dog, plasma, iv, 10 mg/kg, dog, IV bolus 10 mg/kg, animals 1201A, 1501A, Mean, read-out: Plasma NPT-2042 concentration, Time 8.00 h): 182 ng/mL | CL as fraction of hepatic blood flow ([3]; dog, hepatic blood flow about 1.5 L/h/kg): about ⅔ | Human Mic (MS Intensity) [4, 11]: 1.64E+08 | Human Mic (MS Intensity) ([4]; T = 0): 3.71E+08 | Rat Mic (MS Intensity) [5, 11]: 7.73E+07 | Rat Mic (MS Intensity) ([5]; T = 0): 4.15E+08 | clearance ([6]; in vivo, NPT-2042, rat): 48 mL/min/kg | Vd ([6]; in vivo, NPT-2042, rat, read-out: Vz): 10.8 L/kg | half-life ([6]; in vivo, NPT-2042, rat, read-out: t½ (converted)): 2.61 h | AUC(0-inf) ([6]; plasma, NPT-2042, rat): 3470 ng·h/mL | Cmax ([6]; plasma, NPT-2042, rat): 2510 ng/mL | Tmax ([6]; plasma, NPT-2042, rat): 4.8 min | NPT-2042 concentration, Time 0.08 h [6, 13]: 3080 ng/mL and 2720 ng/mL | NPT-2042 concentration, Time 1.00 h [6, 13]: 250 ng/mL and 1190 ng/mL and 924 ng/mL | NPT-2042 concentration, Time 2.00 h [6, 13]: 477 ng/mL and 421 ng/mL | NPT-2042 concentration, Time 4.00 h [6, 13]: 205 ng/mL and 218 ng/mL | NPT-2042 concentration, Time 6.00 h [6, 13]: 203 ng/mL and 145 ng/mL and 60.8 ng/mL | NPT-2042 concentration, Time 8.00 h [6, 13]: 20.0 ng/mL and 33.1 ng/mL and 87.3 ng/mL | NPT-2042 concentration, Time 12.00 h [6, 13]: 60.8 ng/mL and 18.6 ng/mL and 4.67 ng/mL | NPT-2042 concentration, Time 24.00 h [6, 13]: 0.257 ng/mL and 0.582 ng/mL and 1.95 ng/mL | NPT-2042 concentration, Time 0.08 h [6, 14]: 2510 ng/mL | NPT-2042 concentration, Time 1.00 h [6, 14]: 788 ng/mL | NPT-2042 concentration, Time 2.00 h [6, 14]: 405 ng/mL | NPT-2042 concentration, Time 4.00 h [6, 14]: 196 ng/mL | NPT-2042 concentration, Time 6.00 h [6, 14]: 136 ng/mL | NPT-2042 concentration, Time 8.00 h [6, 14]: 46.8 ng/mL | NPT-2042 concentration, Time 12.00 h [6, 14]: 28.0 ng/mL | NPT-2042 concentration, Time 24.00 h [6, 14]: 0.930 ng/mL | concentration at 0.08 h ([6]; rat, plasma, iv, 10 mg/kg, rat, individual rats and Mean (N=3), read-out: NPT-2042 concentration, Time 0.08 h): 1720 ng/mL | concentration at 2 h ([6]; rat, plasma, iv, 10 mg/kg, rat, individual rats and Mean (N=3), read-out: NPT-2042 concentration, Time 2.00 h): 317 ng/mL | concentration at 4 h ([6]; rat, plasma, iv, 10 mg/kg, rat, individual rats and Mean (N=3), read-out: NPT-2042 concentration, Time 4.00 h): 165 ng/mL | Major biotransformation pathways [7]: De-alkylation, Mono-oxidation, and Mono-oxidation and De-alkylation
